Data reported in patent US20100068150A1, “Selective Caspase Inhibitors” (The Board of Trustees of the Leland Stanford Junior …, priority 2006, published 2010).

Experiments:
[1] = biological target: T1, mature p20 forms of caspase-7 (Homo sapiens, UniProt P55210); test: Inhibitor specificity in hypotonic 293 extracts, mature p20 caspase-7; format: biochemical; details: inhibitor 20 μM for 5 min, then KMB01 30 min
T1 construct: p20 is mature large subunit of caspase-7 with N-terminal peptide removed; processing of the zymogen to the large and small subunits by activity of the initiator caspases; endogenous in cells
T1 sequence (P55210 24-198 limits assumed): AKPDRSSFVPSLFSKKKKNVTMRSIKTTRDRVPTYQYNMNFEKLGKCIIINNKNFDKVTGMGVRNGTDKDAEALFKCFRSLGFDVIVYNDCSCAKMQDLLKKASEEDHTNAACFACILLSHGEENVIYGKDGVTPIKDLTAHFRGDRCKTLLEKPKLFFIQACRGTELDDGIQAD
T1 sequence (P55210 207-303 limits assumed): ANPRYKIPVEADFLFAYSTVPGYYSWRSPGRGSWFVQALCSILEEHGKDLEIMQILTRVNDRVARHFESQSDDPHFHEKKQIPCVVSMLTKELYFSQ
Excerpt: FIGS. 6 A-E illustrate that full-length active caspase-7 has unique inhibitor specificity and is processed to mature forms by downstream executioner caspases. (A) The caspase-3 specific inhibitor causes accumulation of a catalytically active full-length form of caspase-7. Cytosolic extracts from 293 cells were activated with cytochrome c/dATP for the indicated times followed by labeling with KMB01 (left panel) and western blotting with a caspase-7 specific antibody (right panel) as in FIG. 5A. […] (B) The exact same experiment as (A) except extracts from MCF-7 cells were used in place of 293 extracts. (**) indicates forms of caspase-7 that are likely a result of the alternative transcription start site at methionine-45 (C) Quantification of the relative activity of FL-C7 in uninhibited 293 extracts (from FIG. 5A), AB06 treated 293 extracts (from (A)) and uninhibited MCF-7 extracts (from (B)) (D) Inhibitor specificity of full-length and processed forms of caspase-7. Extracts (293) were activated for 5 min with cytochrome c/dATP and then incubated with NP-capped AOMK inhibitors containing the indicated primary amino acid sequences for 5 minutes before KMB01 was added and allowed to label residual caspase active sites for 30 minutes. Samples were analyzed by SDS-PAGE followed by biotin blotting using strepavidin-HRP (left panel) or western blotting for caspase-7 (right panel). Identities of labeled caspases are indicated. (E) Specificity of AB06 after prolonged incubation times. Extracts were treated with AB06 at the indicated concentrations simultaneously with cytochrome c/dATP. At the indicated times after activation, samples were labeled with KMB01 (10 μM) for 30 minutes. Labeled caspases were resolved by SDS-PAGE analysis followed by biotin blotting using strepavidin-HRP.
An additional surprising finding from the inhibitor studies was the overall lack of inhibition of the FL-C7 species by AB06 relative to mature p20 forms of caspase-7. This was surprising since the sequence of AB06 (NP-D3VD-AOMK) differs from the KMB01 probe sequence (Bio-EVD-AOMK) only at the P3 residue. […] We therefore wanted to use inhibitors to compare the ability of different P3 elements to bind to full-length and p20 mature forms of caspase-7. […] Samples were analyzed for active site labeling and protein levels of both full-length and p20 forms of caspase-7 were monitored by western blot (FIG. 6D).
Hypotonic 293 extracts (73 μg of total protein) were activated at 37° C. for 5 minutes as described above. […] Samples (13.5 μg total protein) were analyzed by SDS-PAGE and biotin blotting as described above

Caspase-9 = biological target: T2, Caspase-9 (Homo sapiens, UniProt P55211); test: Kinetic compound screening, progress curve method, caspase-9; format: biochemical; details: NI = no inhibition at concentrations tested; for Ki(app) Caspase-9: Table III, Ki(app) = Kass or Kobs/I, 50 nM active caspase-9; for Caspase-9 Ki (app): Table IV
T2 sequence (P55211 1-416): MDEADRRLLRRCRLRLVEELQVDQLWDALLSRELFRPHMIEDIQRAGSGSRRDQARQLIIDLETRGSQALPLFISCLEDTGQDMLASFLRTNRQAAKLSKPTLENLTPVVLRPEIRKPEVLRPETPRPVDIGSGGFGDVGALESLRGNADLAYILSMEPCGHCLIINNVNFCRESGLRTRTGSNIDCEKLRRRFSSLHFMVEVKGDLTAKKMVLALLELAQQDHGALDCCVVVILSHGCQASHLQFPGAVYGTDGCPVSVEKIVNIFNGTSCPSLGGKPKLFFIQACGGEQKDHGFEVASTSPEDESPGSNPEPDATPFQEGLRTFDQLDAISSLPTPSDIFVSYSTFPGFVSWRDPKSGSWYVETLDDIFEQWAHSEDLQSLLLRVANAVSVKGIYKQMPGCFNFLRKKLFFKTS
In short: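 Progress-curve method under pseudo-first-order kinetics, giving Ki(app) (kobs/I, M^−1s^−1), in caspase reaction buffer. Active enzyme at 5 nM (caspase-3, -7), 10 nM (caspase-8) or 50 nM (caspase-9), preactivated at 37 °C for 5, 10 or 40 min respectively. Some caspase-9 compounds also run with 1 M sodium citrate replacing sucrose.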

| Compound | block of KMB01 labeling of mature p20 caspase-7 [1] | Ki(app) Caspase-9 (Caspase-9) | Caspase-9 Ki (app) (Caspase-9) |
| --- | --- | --- | --- |
| Cc1cccc(C)c1C(=O)OCC(=O)[C@H](CC(=O)O)NC(=O)[C@@H](NC(=O)[C@H](Cc1ccncc1)NC(=O)[C@H](CC(=O)O)NC(=O)Cc1ccc(O)c([N+](=O)[O-])c1)C(C)C [AB06, Np-D-3-V-D-DMBA] | efficiently blocked labeling |  |  |
| Cc1cccc(C)c1C(=O)OCC(=O)[C@H](CC(=O)O)NC(=O)[C@@H](NC(=O)[C@H](CCC(=O)O)NC(=O)[C@H](CC(=O)O)NC(=O)Cc1ccc(O)c([N+](=O)[O-])c1)C(C)C [AB09, Np-D-E- V-D-DMBA] | efficiently blocked labeling | <5,000 M^−1s^−1 | <5,000 M-1s-1 |
| Bio-EVD-AOMK [KMB01, reference compound] |  | 175,210 M^−1s^−1 | 210 M⁻¹ s⁻¹ |
